Test results from patent US10118935B2, “Melampomagnolide B dimers” (priority 2014, dated 2018).

How the values were obtained:
MALME-3M = assay: NCI 60 cell line five dose, Melanoma; conditions: MALME-3M
OVCAR-5 = assay: NCI 60 cell line five dose, Ovarian Cancer
HCT-116 = assay: NCI 60 cell line five dose, Colon Cancer
786-0 = assay: NCI 60 cell line five dose, Renal Cancer
HOP-92 = assay: NCI 60 cell line five dose, Non-Small Cell Lung Cancer
KM12 = assay: NCI 60 cell line five dose, Colon Cancer
RPMI-8226 = assay: NCI 60 cell line five dose, Leukemia
SK-OV-3 = assay: NCI 60 cell line five dose, Ovarian Cancer
UACC-62 = assay: NCI 60 cell line five dose, Melanoma
BT-549 = assay: NCI 60 cell line five dose, Breast Cancer
HCT-15 = assay: NCI 60 cell line five dose, Colon Cancer
RXF 393 = assay: NCI 60 cell line five dose, Renal Cancer
U251 = assay: NCI 60 cell line five dose, CNS Cancer
OVCAR-3 = assay: NCI 60 cell line five dose, Ovarian Cancer
M14 = assay: NCI 60 cell line five dose, Melanoma
SF-295 = assay: NCI 60 cell line five dose, CNS Cancer
SF-539 = assay: NCI 60 cell line five dose, CNS Cancer
K-562 = assay: NCI 60 cell line five dose, Leukemia
HCC-2998 = assay: NCI 60 cell line five dose, Colon Cancer
OVCAR-8 = assay: NCI 60 cell line five dose, Ovarian Cancer
SK-MEL-28 = assay: NCI 60 cell line five dose, Melanoma; conditions: SK-MEL-28
COLO 205 = assay: NCI 60 cell line five dose, Colon Cancer
SNB-19 = conditions: for GI50 / TGI: SNB-19
UO-31 = assay: NCI 60 cell line five dose, Renal Cancer

C=C1C(=O)O[C@H]2[C@H]1CC/C(COC(=O)CCC(=O)NCCCCCCCCNC(=O)CCC(=O)OC/C1=C/CC[C@@]3(C)O[C@H]3[C@H]3OC(=O)C(=C)[C@@H]3CC1)=C\CC[C@@]1(C)O[C@@H]21 [JVM 2-87, bis(((1aR,7aS,10aS,10bS,E)-1a-Methyl-8-methylene-9-oxo-1a,2,3,6,7,7a,8,9,10a,1b-decahydrooxireno[2′,3′:9,10]cyclodeca[1,2-b]furan-5-yl)methyl)4,4′-(octane-1,8-diylbis(azanediyl))bis(4-oxobutanoate)]
GI50 (MALME-3M): 2.04 µM | TGI (MALME-3M): 4.04 µM | GI50 (OVCAR-5): 1.82 µM | TGI (OVCAR-5): 3.64 µM | GI50 (HCT-116): 1.54 µM | TGI (HCT-116): 2.88 µM | GI50 (786-0): 1.62 µM | TGI (786-0): 3.29 µM | GI50 (HOP-92): 1.58 µM | TGI (HOP-92): 3.27 µM | GI50 (KM12): 9.46 µM | TGI (KM12): 22.9 µM | GI50 (RPMI-8226): 1.67 µM | TGI (RPMI-8226): 5.70 µM | GI50 (SK-OV-3): 6.45 µM | TGI (SK-OV-3): 19.7 µM | GI50 (UACC-62): 1.97 µM | TGI (UACC-62): 4.20 µM | GI50 (BT-549): 1.23 µM | TGI (BT-549): 2.51 µM | GI50 (HCT-15): 3.6 µM | TGI (HCT-15): 15.6 µM | GI50 (RXF 393): 0.85 µM | TGI (RXF 393): 2.61 µM | GI50 (U251): 3.03 µM | TGI (U251): 10.6 µM | GI50 (OVCAR-3): 1.5 µM | TGI (OVCAR-3): 2.82 µM | GI50 (M14): 1.79 µM | TGI (M14): 3.79 µM | GI50 (SF-295): 15.1 µM | TGI (SF-295): 29.3 µM | GI50 (SF-539): 2.43 µM | TGI (SF-539): 5.76 µM | GI50 (K-562): 0.97 µM | TGI (K-562): 12.9 µM | GI50 (HCC-2998): 4.12 µM | TGI (HCC-2998): 16.7 µM | GI50 (OVCAR-8): 2.9 µM | TGI (OVCAR-8): 13.3 µM | GI50 (SK-MEL-28): 1.65 µM | TGI (SK-MEL-28): 3.23 µM | GI50 (COLO 205): 1.35 µM | TGI (COLO 205): 3.14 µM | CC50 (SNB-19): > 100 µM | GI50 (SNB-19): 4.15 µM | TGI (SNB-19): 19.9 µM | GI50 (UO-31): 10.9 µM | TGI (UO-31): 24.2 µM

C=C1C(=O)O[C@H]2[C@H]1CC/C(COC(=O)CCC(=O)NCCCCCCCCCNC(=O)CCC(=O)OC/C1=C/CC[C@@]3(C)O[C@H]3[C@H]3OC(=O)C(=C)[C@@H]3CC1)=C\CC[C@@]1(C)O[C@@H]21 [JVM 2-92, bis(((1aR,7aS,10aS,10bS,E)-1a-Methyl-8-methylene-9-oxo-1a,2,3,6,7,7a,8,9,10a,10b-decahydrooxireno[2′,3′:9,10]cyclodeca[1,2-b]furan-5-yl)methyl)4,4′-(nonane-1,9-diylbis(azanediyl))bis (4-oxobutanoate)]
GI50 (MALME-3M): 1.94 µM | TGI (MALME-3M): 4.17 µM | GI50 (OVCAR-5): 1.7 µM | TGI (OVCAR-5): 3.47 µM | GI50 (HCT-116): 0.86 µM | TGI (HCT-116): 2.18 µM | GI50 (786-0): 1.49 µM | TGI (786-0): 3.00 µM | GI50 (HOP-92): 1.4 µM | TGI (HOP-92): 3.05 µM | GI50 (KM12): 4.6 µM | TGI (KM12): 17.1 µM | GI50 (RPMI-8226): 0.5 µM | TGI (RPMI-8226): 3.33 µM | GI50 (SK-OV-3): 5.8 µM | TGI (SK-OV-3): 19.2 µM | GI50 (UACC-62): 1.69 µM | TGI (UACC-62): 3.78 µM | GI50 (BT-549): 0.66 µM | TGI (BT-549): 2.03 µM | GI50 (HCT-15): 2.63 µM | TGI (HCT-15): 11.9 µM | GI50 (RXF 393): 1.01 µM | TGI (RXF 393): 2.50 µM | GI50 (U251): 3.01 µM | TGI (U251): 9.25 µM | GI50 (OVCAR-3): 1.29 µM | TGI (OVCAR-3): 2.61 µM | GI50 (M14): 1.65 µM | TGI (M14): 3.64 µM | GI50 (SF-295): 7.68 µM | TGI (SF-295): 21.9 µM | GI50 (SF-539): 1.85 µM | TGI (SF-539): 4.29 µM | GI50 (K-562): 0.45 µM | TGI (K-562): 3.21 µM | GI50 (HCC-2998): 2.25 µM | TGI (HCC-2998): 4.70 µM | GI50 (OVCAR-8): 3.24 µM | TGI (OVCAR-8): 16.5 µM | GI50 (SK-MEL-28): 1.47 µM | TGI (SK-MEL-28): 3.03 µM | GI50 (COLO 205): 1.22 µM | TGI (COLO 205): 3.16 µM | CC50 (SNB-19): > 100 µM | GI50 (SNB-19): 3.38 µM | TGI (SNB-19): 16.3 µM | GI50 (UO-31): 3.9 µM | TGI (UO-31): 16.1 µM
